Source: patent US20040110802A1, “Antibacterial benzoic acid derivatives” (priority 2002, published 2004)
≈ marks a conversion by molar mass, not a printed value.

System: SAUR 9218
Assay: MIC Test Method, standard agar dilution
Type: cell-based
Details: agar dilution, Mueller Hinton agar, incubated overnight at 35° C.; lowest concentration that inhibits visible growth; read-out: SAUR 9218 MIC
Summary of the method: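 MIC (μg/ml) was read as the lowest drug level without visible growth of SAUR 9218 after overnight incubation at 35 °C. Inocula of about 10^4 to 10^5 cells per spot were applied to Mueller Hinton agar containing 2-fold serial compound dilutions.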

SMILES	MIC [µg/mL]
N#Cc1ccc(NC(=O)c2cc3cccc(NC(=O)c4ccccc4O)c3[nH]2)c(C(=O)O)c1	1 (≈ 2.27 µM)
Cn1cnc(S(=O)(=O)Nc2cccc3cc(C(=O)Nc4ccc(C#N)cc4C(=O)O)n(C)c23)c1	0.5 (≈ 1.04 µM)
Cc1sc(C(=O)Nc2ccc(Br)cc2C(=O)O)cc1S(=O)(=O)Nc1ccc(F)c(Cl)c1	8 (≈ 14.6 µM)
Cc1ccsc1C(=O)Nc1ccc(Br)cc1C(=O)O	> 128
N#Cc1ccc(NC(=O)c2noc3c2CCc2ccccc2-3)c(C(=O)O)c1	0.06 (≈ 0.167 µM)
O=C(Nc1ccc(Cl)cc1C(=O)O)c1cc(CCCC2CCCCC2)on1	4 (≈ 10.2 µM)
COc1ncc(C#Cc2cncc(C(=O)Nc3ccc(C#N)cc3C(=O)O)c2)c(OC)n1	> 128
N#Cc1ccc(NC(=O)c2[nH]c3c(OCc4ccccc4)cccc3c2Br)c(C(=O)O)c1	0.5 (≈ 1.02 µM)
N#Cc1ccc(-c2cnc(C(=O)Nc3ccc(C#N)cc3C(=O)O)o2)cc1	> 128
CCCCCCOc1ccccc1-c1cc(C(=O)Nc2ccc(C#N)cc2C(=O)O)no1	0.5 (≈ 1.15 µM)
COC(=O)CCCCCCC(=O)Nc1cccc2cc(C(=O)Nc3ccc(C#N)cc3C(=O)O)[nH]c12	1 (≈ 2.04 µM)
N#Cc1ccc(NC(=O)c2cnc(-c3ccccc3C(F)(F)F)cn2)c(C(=O)O)c1	32 (≈ 77.6 µM)
COc1ccc2c(C(=O)Nc3ccc(C#N)cc3C(=O)O)noc2c1	0.5 (≈ 1.48 µM)
N#Cc1ccc(NC(=O)c2noc3cc(OS(=O)(=O)Cc4ccccc4)ccc23)c(C(=O)O)c1	0.25 (≈ 0.524 µM)
CS(=O)(=O)c1ncc(N2CCOCC2)c(C(=O)Nc2ccc(Br)cc2C(=O)O)n1	> 128
Cc1c(S(=O)(=O)NC2CCN(Cc3ccccc3)CC2)csc1C(=O)Nc1ccc(Br)cc1C(=O)O	> 128
O=C(Nc1ccc(Br)cc1C(=O)O)c1ccnc(SCc2ccccc2)c1	2 (≈ 4.51 µM)
C[C@@H](CBr)COc1ccccc1-c1cc(C(=O)Nc2ccc(C#N)cc2C(=O)O)no1	0.5 (≈ 1.03 µM)
N#Cc1ccc(NC(=O)c2cnc(SCc3ccccc3)s2)c(C(=O)O)c1	1 (≈ 2.53 µM)
CCCCn1c(C(=O)Nc2ccc(C#N)cc2C(=O)O)cc2ccccc21	32 (≈ 88.5 µM)
Cn1c(C(=O)Nc2ccc(C#N)cc2C(=O)O)cc2c(Br)ccc(NC(=O)Cc3ccccc3)c21	2 (≈ 3.76 µM)
O=C(O)c1cc(Br)ccc1NC(=O)c1ncc(C(F)(F)F)cc1Cl	64 (≈ 151 µM)
N#Cc1ccc(NC(=O)c2cc3cccc4c3n2CCC4O)c(C(=O)O)c1 (stereo not shown)	0.5 (≈ 1.38 µM)
N#Cc1ccc(NC(=O)c2ccc(SCCCCO)nc2)c(C(=O)O)c1	2 (≈ 5.38 µM)
N#Cc1ccc(NC(=O)c2cc3ccccc3n2CCCc2ccccc2)c(C(=O)O)c1	4 (≈ 9.45 µM)

SMILES	MIC [µg/mL]
O=C(O)c1cc(Br)ccc1NC(=O)c1c[nH]c2ccccc12	4 (≈ 11.1 µM)
CC(Oc1ccccc1-c1cc(C(=O)Nc2ccc(C#N)cc2C(=O)O)no1)C1CCCCC1 (stereo not shown)	1 (≈ 2.18 µM)
COc1ccc(CCCC(=O)Nc2cccc3cc(C(=O)Nc4ccc(C#N)cc4C(=O)O)[nH]c23)cc1	1 (≈ 2.01 µM)
Cc1sc(C(=O)Nc2ccc(Br)cc2C(=O)O)cc1S(=O)(=O)N1CCc2ccc(Cl)cc21	1 (≈ 1.8 µM)
N#Cc1ccc(NC(=O)c2cc(-c3ccccc3Cl)on2)c(C(=O)O)c1	0.125 (≈ 0.34 µM)
CCCCSc1cnc(C(=O)Nc2ccc(C#N)cc2C(=O)O)cn1	0.125 (≈ 0.351 µM)
Cn1c(C(=O)Nc2ccc(C#N)cc2C(=O)O)cc2ccc(-c3ccccc3F)cc21	0.5 (≈ 1.21 µM)
CCCCCNC(=O)Nc1ccc2cc(C(=O)Nc3ccc(C#N)cc3C(=O)O)n(C)c2c1	0.5 (≈ 1.12 µM)
Cc1noc(C)c1C#Cc1cncc(C(=O)Nc2ccc(C#N)cc2C(=O)O)c1	16 (≈ 41.4 µM)
Cc1ccc(C(=O)Nc2ccc(Br)cc2C(=O)O)s1	64 (≈ 188 µM)
Cc1sc(C(=O)Nc2ccc(C#N)cc2C(=O)O)cc1S(=O)(=O)N1CCCC1	16 (≈ 38.1 µM)
CC(C)(C)O/N=C1\CCn2c(C(=O)Nc3ccc(C#N)cc3C(=O)O)cc3cccc1c32	1 (≈ 2.32 µM)
COc1ccccc1-c1cc(C(=O)Nc2ccc(Br)cc2C(=O)O)no1	0.125 (≈ 0.3 µM)
N#Cc1ccc(NC(=O)c2cc3cccc(NC(=O)Cc4c(Cl)cccc4Cl)c3[nH]2)c(C(=O)O)c1	0.25 (≈ 0.493 µM)
O=C(Nc1ccc(Br)cc1C(=O)O)c1ccccn1	> 128
O=C(O)c1cc(Br)ccc1NC(=O)c1cc(SCc2ccccc2)cc[n+]1[O-]	8 (≈ 17.4 µM)
COc1ccccc1-c1cc(C(=O)Nc2ccc(Cl)cc2C(=O)O)no1	0.125 (≈ 0.335 µM)
N#Cc1ccc(NC(=O)c2noc3cc(N)ccc23)c(C(=O)O)c1	0.5 (≈ 1.55 µM)
Cn1c(C(=O)Nc2ccc(C#N)cc2C(=O)O)cc2ccc(OCc3ccccc3)cc21	0.125 (≈ 0.294 µM)
CNC(=O)Nc1ccc2cc(C(=O)Nc3ccc(C#N)cc3C(=O)O)n(C)c2c1	2 (≈ 5.11 µM)
COCCOCCCSc1cnc(C(=O)Nc2ccc(Cl)cc2C(=O)O)cn1	2 (≈ 4.7 µM)
N#Cc1ccc(NC(=O)c2cc3cccc(NC(=O)Cc4ccc(F)cc4)c3[nH]2)c(C(=O)O)c1	0.25 (≈ 0.548 µM)
N#Cc1ccc(NC(=O)c2cc3cccc4c3n2CC/C4=N\O)c(C(=O)O)c1	0.25 (≈ 0.668 µM)
CSc1ncccc1C(=O)Nc1ccc(Br)cc1C(=O)O	> 128
N#Cc1ccc(NC(=O)c2ccc(SC3CCCCC3)nc2)c(C(=O)O)c1	0.5 (≈ 1.31 µM)

SMILES	MIC [µg/mL]
COCCOCCOCC(=O)Nc1cccc2cc(C(=O)Nc3ccc(C#N)cc3C(=O)O)[nH]c12	4 (≈ 8.33 µM)
CC1=C(C(=O)Nc2ccc(Br)cc2C(=O)O)Cc2ccccc21	8 (≈ 21.5 µM)
CC12CCC(C(=O)Nc3cccc4cc(C(=O)Nc5ccc(C#N)cc5C(=O)O)[nH]c34)(OC1=O)C2(C)C (stereo not shown)	8 (≈ 16 µM)
Cn1nc(C(=O)Nc2ccc(Br)cc2C(=O)O)cc1OCc1ccccc1	16 (≈ 37.2 µM)
CS(=O)(=O)c1ncc(Cl)c(C(=O)Nc2ccc(Cl)cc2C(=O)O)n1	> 128
Cc1sc(C(=O)Nc2ccc(C#N)cc2C(=O)O)cc1S(=O)(=O)Nc1ccc2c(c1)CCC2	32 (≈ 66.5 µM)
CC(C)Cn1c(C(=O)Nc2ccc(C#N)cc2C(=O)O)cc2ccccc21	4 (≈ 11.1 µM)
Cn1c(C(=O)Nc2cccc3cc(C(=O)Nc4ccc(C#N)cc4C(=O)O)n(C)c23)cc2ccccc21	0.125 (≈ 0.254 µM)
N#Cc1ccc(NC(=O)c2noc3ccc(Br)cc23)c(C(=O)O)c1	0.125 (≈ 0.324 µM)
N#Cc1ccc(NC(=O)c2cc3cccc4c3n2CCC4=O)c(C(=O)O)c1	1 (≈ 2.78 µM)
O=C(Nc1ccc(Br)cc1C(=O)O)c1csc(S(=O)(=O)N2CCc3ccc(Cl)cc32)c1	8 (≈ 14.8 µM)
CCCn1c(C(=O)Nc2ccc(C#N)cc2C(=O)O)cc2ccccc21	2 (≈ 5.76 µM)
N#Cc1ccc(NC(=O)c2cc3cccc(NC(=O)Cc4cccc(C(F)(F)F)c4)c3[nH]2)c(C(=O)O)c1	0.25 (≈ 0.494 µM)
N#Cc1ccc(NC(=O)c2cc3ccccc3cn2)c(C(=O)O)c1	1 (≈ 3.15 µM)
COc1cc(C(=O)Nc2ccc(Br)cc2C(=O)O)nn1Cc1ccccc1	128 (≈ 297 µM)
N#Cc1ccc(NC(=O)c2noc3c2CN(C(=O)OCc2ccccc2)CC3)c(C(=O)O)c1	0.5 (≈ 1.12 µM)
O=C(Nc1ccc(Br)cc1C(=O)O)c1ccc(Br)o1	64 (≈ 165 µM)
O=C(Nc1ccc(I)cc1C(=O)O)c1cnc(Cl)cn1	128 (≈ 317 µM)
COc1ccccc1CC(=O)Nc1cccc2cc(C(=O)Nc3ccc(C#N)cc3C(=O)O)[nH]c12	0.5 (≈ 1.07 µM)
N#Cc1ccc(NC(=O)c2noc3ccc(S(=O)(=O)N4CCCC4)cc23)c(C(=O)O)c1	0.06 (≈ 0.136 µM)
Cn1c(C(=O)Nc2ccc(C#N)cc2C(=O)O)cc2cccc(NC(=O)NCc3ccccc3)c21	0.125 (≈ 0.267 µM)
N#Cc1ccc(NC(=O)c2ccccn2)c(C(=O)O)c1	32 (≈ 120 µM)
Cn1nc(-c2c(F)cccc2F)cc1C(=O)Nc1ccc(Br)cc1C(=O)O	128 (≈ 293 µM)
N#Cc1ccc(NC(=O)c2cc(CN(CCO)CCO)on2)c(C(=O)O)c1	8 (≈ 21.4 µM)
COCCOc1cccc2cc(C(=O)Nc3ccc(C#N)cc3C(=O)O)n(C)c12	0.25 (≈ 0.635 µM)

SMILES	MIC [µg/mL]
O=C(O)c1cc(Br)ccc1NC(=O)c1noc2ccc(Br)cc12	1 (≈ 2.27 µM)
CCC(=O)Nc1cccc2cc(C(=O)Nc3ccc(C#N)cc3C(=O)O)[nH]c12	2 (≈ 5.31 µM)
N#Cc1ccc(NC(=O)c2ncc(-c3ccc4c(c3)OCO4)o2)c(C(=O)O)c1	2 (≈ 5.3 µM)
O=C(Nc1ccc(O)cc1C(=O)O)c1cc(-c2ccccc2Br)on1	0.125 (≈ 0.31 µM)
CCCCCOc1cccc2cc(C(=O)Nc3ccc(C#N)cc3C(=O)O)n(C)c12	0.125 (≈ 0.308 µM)
N#Cc1ccc(NC(=O)C2=NS(=O)(=O)c3ccccc32)c(C(=O)O)c1	> 128
COc1ccc(C(=O)Nc2ccc(Br)cc2C(=O)O)c(OC)n1	> 128
N#Cc1ccc(NC(=O)c2cncc(SCc3ccccc3)n2)c(C(=O)O)c1	64 (≈ 164 µM)
Cc1ccccc1-c1cncc(C(=O)Nc2ccc(C#N)cc2C(=O)O)c1	8 (≈ 22.4 µM)
Cn1c(C(=O)Nc2ccc(C#N)cc2C(=O)O)cc2cccc(OCC3COc4ccccc4O3)c21 (stereo not shown)	0.125 (≈ 0.259 µM)
Cn1c(C(=O)Nc2ccc(C#N)cc2C(=O)O)cc2ccc(N(S(=O)(=O)c3cccs3)S(=O)(=O)c3cccs3)cc21	0.06 (≈ 0.0957 µM)
Cn1c(C(=O)Nc2ccc(C#N)cc2C(=O)O)cc2cccc(O)c21	1 (≈ 2.98 µM)
O=C(Nc1ccc(Br)cc1C(=O)O)c1cc(-c2ccc3c(c2)OCO3)on1	0.125 (≈ 0.29 µM)
Cn1c(C(=O)Nc2ccc(C#N)cc2C(=O)O)cc2ccc(NC(=O)c3ccno3)cc21	0.5 (≈ 1.16 µM)
COc1cnc(C(=O)Nc2ccc(C#N)cc2C(=O)O)cn1	8 (≈ 26.8 µM)
Cn1c(C(=O)Nc2ccc(C#N)cc2C(=O)O)cc2cccc(NC(=O)NCC(O)CO)c21 (stereo not shown)	4 (≈ 8.86 µM)
N#Cc1ccc(NC(=O)c2ccc3c(c2)OCO3)c(C(=O)O)c1	16 (≈ 51.6 µM)
CCC(C)Sc1cnc(C(=O)Nc2ccc(C#N)cc2C(=O)O)cn1 (stereo not shown)	0.25 (≈ 0.701 µM)
N#Cc1ccc(NC(=O)c2noc3ccc(NC(=O)Cc4ccccc4)cc23)c(C(=O)O)c1	1 (≈ 2.27 µM)
Cc1sc(C(=O)Nc2ccc(Br)cc2C(=O)O)cc1S(=O)(=O)N1CC2CC1CN2Cc1ccccc1 (stereo not shown)	16 (≈ 27.1 µM)
Cc1sc(C(=O)Nc2ccc(C#N)cc2C(=O)O)cc1S(=O)(=O)N(CCC#N)Cc1ccccc1	64 (≈ 126 µM)
O=C(Nc1ccc(Br)cc1C(=O)O)c1ncc(-c2ccc3c(c2)OCO3)o1	2 (≈ 4.64 µM)
N#Cc1ccc(NC(=O)c2cc(CCC(O)CO)on2)c(C(=O)O)c1 (stereo not shown)	8 (≈ 23.2 µM)
O=C(Nc1ccc(Br)cc1C(=O)O)c1c[nH]c(SCc2ccccc2)n1	> 128

Same assay, conditions: read-out: SAUR 9218 MIC

SMILES	MIC [µg/mL]
Cn1c(C(=O)Nc2ccc(C#N)cc2C(=O)O)cc2cccc(NC(=O)CF)c21	1 (≈ 2.54 µM)
